Reference: patent publication US20080188483A1, “Compounds and Compositions as Protein Kinase Inhibitors” (IRM LLC, priority 2006, published 2008)

Legend:
[1] = molecular target: T1, wild type Bcr-abl (Ba/F3 cells) (Homo sapiens, UniProt P00519); test: Proliferation of Ba/F3 cells expressing wild type Bcr-abl; format: cell-based
T1 construct: expressed in transfected cells; host or cells: Ba/F3 (murine pro-B cells); the other entry of the earlier key: BCR (P11274, Breakpoint cluster region protein)
Protocol: (§1) 2D-p210 cells are plated into 96 well TC plates at a density of 15,000 cells per well. 50 μL of two fold serial dilutions of the test compound (Cmax is 40 μM) are added to each well (STI571 is included as a positive control). After incubating the cells for 48 hours at 37° C., 5% CO2, 15 μL of MTT (Promega) is added to each well and the cells are incubated for an additional 5 hours. The optical density at 570 nm is quantified spectrophotometrically and IC50 values, the concentration of compound required for 50% inhibition, determined from a dose response curve.
(§2) Compounds of the invention are tested for their antiproliferative effect on Ba/F3 cells expressing either wild type or the mutant forms of BCR-Abl (G250E, E255V, T315I, F317L, M351T) that confers resistance or diminished sensitivity to STI571. The antiproliferative effect of these compounds on the mutant-BCR-Abl expressing cells and on the non transformed cells were tested at 10, 3.3, 1.1 and 0.37 μM as described above (in media lacking IL3). The IC50 values of the compounds lacking toxicity on the untransformed cells were determined from the dose response curves obtained as describe above.

[2] = molecular target: T2, G250E Bcr-abl (Ba/F3 cells) (Homo sapiens, UniProt P00519, G250E); test: Proliferation of Ba/F3 cells expressing mutant Bcr-abl G250E; format: cell-based
T2 construct: expressed in transfected cells; host or cells: Ba/F3; the other entry of the earlier key: BCR (P11274, Breakpoint cluster region protein)
Protocol: as §1, §2

b-Raf = b-Raf (Homo sapiens, UniProt P15056); test: b-Raf enzymatic assay; format: biochemical
Protocol: Compounds of the invention are tested for their ability to inhibit the activity of b-Raf. The assay is carried out in 384-well MaxiSorp plates (NUNC) with black walls and clear bottom. The substrate, IκBα: is diluted in DPBS (1:750) and 15 μl is added to each well. The plates are incubated at 4° C. overnight and washed 3 times with TBST (25 mM Tris, pH 8.0, 150 mM NaCl and 0.05% Tween-20) using the EMBLA plate washer. Plates are blocked by Superblock (15 μl/well) for 3 hours at room temperature, washed 3 times with TBST and pat-dried. Assay buffer containing 20 μM ATP (10 μl) is added to each well followed by 100 nl or 500 nl of compound. B-Raf is diluted in the assay buffer (1 μl into 25 μl) and 10 μl of diluted b-Raf is added to each well (0.4 μg/well). The plates are incubated at room temperature for 2.5 hours. The kinase reaction is stopped by washing the plates 6 times with TBST. Phosph-IκBα (Ser32/36) antibody is diluted in Superblock (1:10,000) and […] is added to each well. The plates are incubated at 4° C. overnight and washed 6 times with TBST. AP-conjugated goat-anti-mouse IgG is diluted in Superblock (1:1,500) and 15 μl is added to each well. Plates are incubated at room temperature for 1 hour and washed 6 times with TBST. […] Plates are read on Acquest or Analyst GT using a Fluorescence Intensity Program (Excitation 455 nm, Emission 580 nm).

[3] = molecular target: T3, T315I Bcr-abl (Ba/F3 cells) (Homo sapiens, UniProt P00519, T315I); test: Proliferation of Ba/F3 cells expressing mutant Bcr-abl T315I; format: cell-based
T3 construct: expressed in transfected cells; host or cells: Ba/F3; the other entry of the earlier key: BCR (P11274, Breakpoint cluster region protein)
Protocol: as §1, §2

[4] = molecular target: T4, E255V Bcr-abl (Ba/F3 cells) (Homo sapiens, UniProt P00519, E255V); test: Proliferation of Ba/F3 cells expressing mutant Bcr-abl E255V; format: cell-based
T4 construct: expressed in transfected cells; host or cells: Ba/F3; the other entry of the earlier key: BCR (P11274, Breakpoint cluster region protein)
Protocol: as §1, §2

[5] = molecular target: T5, M351T Bcr-abl (Ba/F3 cells) (Homo sapiens, UniProt P00519, M351T); test: Proliferation of Ba/F3 cells expressing mutant Bcr-abl M351T; format: cell-based
T5 construct: expressed in transfected cells; host or cells: Ba/F3; the other entry of the earlier key: BCR (P11274, Breakpoint cluster region protein)
Protocol: as §1, §2

[6] = molecular target: T6, F317L Bcr-abl (Ba/F3 cells) (Homo sapiens, UniProt P00519, F317L); test: Proliferation of Ba/F3 cells expressing mutant Bcr-abl F317L; format: cell-based
T6 construct: expressed in transfected cells; host or cells: Ba/F3; the other entry of the earlier key: BCR (P11274, Breakpoint cluster region protein)
Protocol: as §1, §2

[7] = molecular target: T7, PDGFRβ (Ba/F3-Tel-PDGFRβ) (Homo sapiens, UniProt P09619); test: PDGFRβ cellular assay (Ba/F3-Tel-PDGFRβ proliferation); format: cell-based; conditions: read-out: IC50 against PDGFRβ in the cellular assay
T7 construct: expressed in transfected cells; host or cells: Ba/F3; the other entry of the earlier key: ETV6 (P41212, Transcription factor ETV6)
T7 sequence (P09619 600-962 limits assumed): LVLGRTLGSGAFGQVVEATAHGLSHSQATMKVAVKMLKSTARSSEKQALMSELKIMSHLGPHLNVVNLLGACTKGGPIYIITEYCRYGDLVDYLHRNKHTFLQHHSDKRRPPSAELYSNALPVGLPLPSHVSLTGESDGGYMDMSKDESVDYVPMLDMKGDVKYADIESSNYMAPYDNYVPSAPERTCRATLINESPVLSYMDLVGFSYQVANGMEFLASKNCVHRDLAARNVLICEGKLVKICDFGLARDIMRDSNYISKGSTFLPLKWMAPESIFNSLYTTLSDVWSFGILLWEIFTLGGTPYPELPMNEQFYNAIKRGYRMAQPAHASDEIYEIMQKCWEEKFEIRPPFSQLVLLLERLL

b-Raf, sequence (P15056 whole entry): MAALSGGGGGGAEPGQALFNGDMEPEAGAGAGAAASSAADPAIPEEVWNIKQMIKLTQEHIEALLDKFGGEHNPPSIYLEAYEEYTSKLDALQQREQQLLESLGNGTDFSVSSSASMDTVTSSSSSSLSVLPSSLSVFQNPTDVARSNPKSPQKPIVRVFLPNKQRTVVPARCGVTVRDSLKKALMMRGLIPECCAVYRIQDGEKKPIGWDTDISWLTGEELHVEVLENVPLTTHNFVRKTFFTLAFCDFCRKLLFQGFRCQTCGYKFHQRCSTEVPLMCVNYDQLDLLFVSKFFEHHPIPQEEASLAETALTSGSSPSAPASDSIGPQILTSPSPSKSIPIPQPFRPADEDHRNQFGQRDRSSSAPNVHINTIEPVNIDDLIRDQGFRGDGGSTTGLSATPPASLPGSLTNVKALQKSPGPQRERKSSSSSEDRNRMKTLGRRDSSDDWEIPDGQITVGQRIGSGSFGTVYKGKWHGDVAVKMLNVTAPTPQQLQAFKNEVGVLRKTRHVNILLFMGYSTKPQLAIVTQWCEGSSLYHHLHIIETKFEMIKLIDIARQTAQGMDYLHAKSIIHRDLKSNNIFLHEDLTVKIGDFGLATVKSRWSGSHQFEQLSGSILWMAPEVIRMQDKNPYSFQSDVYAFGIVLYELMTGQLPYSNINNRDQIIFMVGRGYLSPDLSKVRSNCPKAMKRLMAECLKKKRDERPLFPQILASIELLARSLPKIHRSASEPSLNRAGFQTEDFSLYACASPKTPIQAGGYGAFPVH

Compound `Cc1cn(-c2cc(C(=O)Nc3ccc(C)c(Nc4nccn4-c4ncnc5[nH]ccc45)c3)cc(C(F)(F)F)c2)cn1` [Example 2, 3-(4-methyl-imidazol-1-yl)-N-{4-methyl-3-[1-(7H-pyrrolo[2,3-d]pyrimidin-4-yl)-1H-imidazol-2-ylamino]-phenyl}-5-trifluoromethyl-benzamide] has an IC50 [1] of less than 0.5 nM, an IC50 [2] of 56 nM and an IC50 (b-Raf) of 2 nM. It also gave an IC50 [3] of 63 nM, an IC50 [4] of 43 nM and an IC50 [5] of less than 0.5 nM. For the same compound, the IC50 [6] was less than 0.5 nM and the IC50 [7] was 4 nM.
